The text below walks through data of patent US7348322B2, “Glucocorticoid receptor modulators as antiinflammatory agents” (Roche Palo Alto LLC, priority 2005, dated 2008).

For this experiment, the target named is T1, Human recombinant purified glucocorticoid receptor (Homo sapiens, UniProt P04150).
T1 sequence (P04150 1-777): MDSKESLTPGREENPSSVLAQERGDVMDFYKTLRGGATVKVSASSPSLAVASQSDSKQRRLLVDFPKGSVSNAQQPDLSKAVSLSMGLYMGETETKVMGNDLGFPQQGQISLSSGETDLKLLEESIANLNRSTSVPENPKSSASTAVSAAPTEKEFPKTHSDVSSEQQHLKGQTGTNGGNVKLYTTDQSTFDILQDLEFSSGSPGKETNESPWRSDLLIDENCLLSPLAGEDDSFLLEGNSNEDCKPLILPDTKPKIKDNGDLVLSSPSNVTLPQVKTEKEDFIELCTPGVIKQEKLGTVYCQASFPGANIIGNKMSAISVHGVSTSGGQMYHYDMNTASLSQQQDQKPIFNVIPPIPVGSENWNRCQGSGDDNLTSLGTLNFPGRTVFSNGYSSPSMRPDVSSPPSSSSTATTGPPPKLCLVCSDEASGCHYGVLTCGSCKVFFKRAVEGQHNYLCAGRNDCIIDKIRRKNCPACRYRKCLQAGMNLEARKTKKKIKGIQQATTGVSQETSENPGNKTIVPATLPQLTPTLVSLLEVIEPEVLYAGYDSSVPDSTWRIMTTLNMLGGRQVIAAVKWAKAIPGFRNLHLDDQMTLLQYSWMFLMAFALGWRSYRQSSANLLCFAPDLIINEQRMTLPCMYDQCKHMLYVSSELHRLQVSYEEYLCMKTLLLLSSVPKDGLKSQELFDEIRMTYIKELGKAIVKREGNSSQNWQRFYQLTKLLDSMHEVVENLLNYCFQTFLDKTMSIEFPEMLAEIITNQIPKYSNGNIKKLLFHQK
The experiment can be described thus: Glucocorticoid receptor competitive binding assay (3H-dexamethasone). Conditions: competition with 2 nM 3H-Dexamethasone, 1 nM GR, 4° C. overnight; read-out: Binding Affinity Ki. As to the method:
The affinity of glucocorticoid receptor antagonists for the glucocorticoid receptor was determined in competitive binding assays by the ability of the antagonist to compete with tritiated dexamethasone.
All assay steps were performed on ice in 96-well plates. Binding buffer contained 10 mM potassium phosphate pH 7.4, 20 mM Na2Mo4, 100 μM EDTA, 2% DMSO, and 5 mM DTT. Human recombinant purified glucocorticoid receptor was used at 1 nM. Compounds tested had up to 2% DMSO final concentration. Non-specific binding condition was 1 μM dexamethasone. The radioligand used for the competition assay was 2 nM ^3H-Dexamethasone (83 Ci/mmol stock solution). Buffer, compounds or vehicles, GR, and radioligand were incubated at 4° C. overnight. Unifilter GF/B 96-well filter plates were treated with 0.5% PEI after incubation. Samples were transferred to filter plates by a cell harvester. Filter plates were washed five times with 50 mM Tris pH 7.5 and 5 mM EDTA wash buffer. Samples were dried at 65° C. for about 1 hr. Scintillation fluid was added to filter plates at 50 μL/ well and ^3H cpm were measured on the TopCount scintillation counter.

As to `Cc1noc(=O)c2ccc(NCC(=O)CC3(c4ccccc4C(F)(F)F)CCC3)cc12` [Example 1, 4-Methyl-6-{2-oxo-3-[1-(2-trifluoromethyl-phenyl)-cyclobutyl]-propylamino}-benzo[d][1,2]oxazin-1-one], the Ki is 405 nM.

Regarding `O=C(CC1(c2ccccc2C(F)(F)F)CCC1)C(=O)Nc1cccc(-c2ccno2)c1` [Example 6, N-(3-Isoxazol-5-yl-phenyl)-2-oxo-3-[1-(2-trifluoromethyl-phenyl)-cyclobutyl]-propionamide], the Ki was 2400 nM.

As for `ON=C(CNc1ccc(-c2cnco2)cc1)CC1(c2ccccc2C(F)(F)F)CCC1` (racemic) [Example 4, 1-(4-Oxazol-5-yl-phenylamino)-3-[1-(2-trifluoromethyl-phenyl)-cyclobutyl]-propan-2-one oxime], the Ki worked out at 851 nM.

Take `Cc1noc(=O)c2ccc(NC/C(CC3(c4ccccc4C(F)(F)F)CCC3)=N\O)cc12` [Example 2, 1-(4-Methyl-1-oxo-1H-benzo[d][1,2]oxazin-6-ylamino)-3-[1-(2-trifluoromethyl-phenyl)-cyclobutyl]propan-2-one oxime]: the Ki came out at 89 nM.

With `O=C(CC1(c2ccccc2C(F)(F)F)CCC1)C(=O)Nc1ccc(-c2cnco2)cc1` [Example 5, N-(4-Oxazol-5-yl-phenyl)-2-oxo-3-[1-(2-trifluoromethyl-phenyl)-cyclobutyl]-propionamide], the Ki was 723 nM.

On to `O/N=C(\CNc1cccc(-c2cnco2)c1)CC1(c2ccccc2C(F)(F)F)CCC1` [Example 3, 1-(3-Oxazol-5-yl-phenylamino)-3-[1-(2-trifluoromethyl-phenyl)-cyclobutyl]-propan-2-one oxime], for which the inhibitory constant (Ki) was 2100 nM.

Broadly, the Ki is the equilibrium dissociation constant of an inhibitor or competing ligand from its target.
